Reference: patent publication US20160302412A1, “USES OF SALICYLIC ACID” (UNIVERSITY OF TENNESSEE RESEARCH FOUNDATION, priority 2013, published 2016)

Test system: snap bean seedling diseases (Pythium spp., Rhizoctonia solani, Macrophomina phaseolina, and Fusarium spp.)
Assay: Spring-planted 2013 snap bean field test
Details: in vivo

With `O.O.O=C([O-])c1ccccc1O.O=C([O-])c1ccccc1O.[Ca+2]` [calcium salicylate, calcium salicylate dihyrate] the “Overall snap bean yield” value was “highest”, the “Seedling emergence 15 days after planting (May 8)” value was “greatest” and the healthy plant stands was “highest”.
